Reference: BindingDB's records for patent US11970463 (Astrazeneca, 2024)

Molecular target: Potassium voltage-gated channel subfamily H member 2 (Homo sapiens, UniProt Q12809)
Test: hERG Assay
Method: Experiments were performed on the SyncroPatch 384PE (Nanion Technologies) high throughput patch clamp platform at rt and used medium resistance chips with 4 patch holes per site. hERG-expressing Chinese hamster ovary K1 (CHO) cell line were used in assay-ready format and kept in liquid nitrogen until use. 2 vials of cells (10×10^6 cells per vial) were thawed and added to 20 mL Hepes-buffered saline solution (HBSS). HBSS comprised 140 mM NaCl, 4 mM KCl, 10 mM HEPES and 5 mM Glucose (pH 7.4). The internal patch clamp solution was KF 120 mM, KCl 20 mM, HEPES 10 mM, EGTA 10 mM, and 25 μM Escin (pH7.2). After the initial sealing process was complete, a seal enhancer solution comprising HBSS supplemented with 10 mM CaCl2 and 1 mM MgCl2 was applied to cells. The external solution was then exchanged (4 times) for external patch clamp solution comprising NaCl 80 mM, KCl 4 mM, HEPES 10 mM, CaCl2 2 mM, MgCl2 1 mM, glucose 5 mM, and NMDG 60 mM (pH 7.4). All solutions were stored at rt, except Escin, which was stored at 4° C. All compounds were dispensed in greiner-bio 384 well plates and tested in a 6 point cumulative assay (final DMSO concentration 0.33%). Only wells that passed acceptance criteria (30 MegaOhm seal resistance, Z prime >0.4 and current size >0.2 nA) were used in this analysis.

Chain of Potassium voltage-gated channel subfamily H member 2 (Q12809 whole entry): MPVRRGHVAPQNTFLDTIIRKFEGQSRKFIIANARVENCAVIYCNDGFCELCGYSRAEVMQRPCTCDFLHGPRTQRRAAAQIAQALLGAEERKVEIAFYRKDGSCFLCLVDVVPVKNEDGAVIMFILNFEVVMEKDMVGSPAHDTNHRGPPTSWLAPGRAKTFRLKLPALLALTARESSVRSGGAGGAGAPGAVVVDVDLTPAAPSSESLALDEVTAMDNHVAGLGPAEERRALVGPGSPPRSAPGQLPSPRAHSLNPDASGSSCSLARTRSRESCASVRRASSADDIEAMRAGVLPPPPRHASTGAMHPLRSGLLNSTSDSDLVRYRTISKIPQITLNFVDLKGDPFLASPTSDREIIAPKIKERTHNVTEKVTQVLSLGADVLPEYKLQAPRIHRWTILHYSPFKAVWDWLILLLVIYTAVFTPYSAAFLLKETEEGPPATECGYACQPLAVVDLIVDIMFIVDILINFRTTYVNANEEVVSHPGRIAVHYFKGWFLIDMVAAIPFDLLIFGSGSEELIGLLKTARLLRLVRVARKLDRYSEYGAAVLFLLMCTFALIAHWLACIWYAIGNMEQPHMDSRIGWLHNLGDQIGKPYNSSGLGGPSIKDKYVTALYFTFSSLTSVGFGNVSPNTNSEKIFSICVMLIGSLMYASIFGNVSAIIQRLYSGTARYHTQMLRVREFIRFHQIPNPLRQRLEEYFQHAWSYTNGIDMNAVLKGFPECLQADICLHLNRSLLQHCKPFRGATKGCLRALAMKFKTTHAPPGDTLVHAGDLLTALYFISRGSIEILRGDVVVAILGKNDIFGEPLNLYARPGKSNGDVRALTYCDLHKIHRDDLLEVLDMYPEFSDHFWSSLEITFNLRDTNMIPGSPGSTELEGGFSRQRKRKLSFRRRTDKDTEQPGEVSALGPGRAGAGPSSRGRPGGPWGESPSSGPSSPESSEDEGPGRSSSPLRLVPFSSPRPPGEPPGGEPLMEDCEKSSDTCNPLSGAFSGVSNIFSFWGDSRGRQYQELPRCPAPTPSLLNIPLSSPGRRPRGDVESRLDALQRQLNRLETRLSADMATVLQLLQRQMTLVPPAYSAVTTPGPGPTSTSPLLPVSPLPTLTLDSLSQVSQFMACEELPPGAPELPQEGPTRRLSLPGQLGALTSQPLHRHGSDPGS

C[C@@]1(O)CC[C@@H](Nc2nnc(-c3ccc(C(F)(F)F)cc3O)c3ccncc23)C1 [US11970463, Example 38]
IC50: 34 µM
